Measurements taken from PubChem BioAssay (NCI).
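Interpolation was linear, between the two tested concentrations surrounding the appropriate level; five concentrations were tested over 48 hours in 96-well plates. TGI: concentration producing complete growth inhibition.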

Legend:
Assay in all cases: inhibition of tumour cell growth, NCI panel, 48 h
DLD-1 colon = test system: DLD-1 colon
HCT-116 colon = test system: HCT-116 colon
CAKI-1 renal = test system: CAKI-1 renal
SF-539 CNS = test system: SF-539 CNS
A549 NSCLC = test system: A549 NSCLC
SR leukemia = test system: SR leukemia
SK-OV-3 ovarian = test system: SK-OV-3 ovarian
HL-60(TB) leukemia = test system: HL-60(TB) leukemia
SNB-75 CNS = test system: SNB-75 CNS
MALME-3M melanoma = test system: MALME-3M melanoma
CCRF-CEM leukemia = test system: CCRF-CEM leukemia
SNB-19 CNS = test system: SNB-19 CNS
A498 renal = test system: A498 renal
SNB-78 CNS = test system: SNB-78 CNS
LOX IMVI melanoma = test system: LOX IMVI melanoma
UACC-257 melanoma = test system: UACC-257 melanoma
SW-620 colon = test system: SW-620 colon
NCI-H460 lung = test system: NCI-H460 lung
HCC-2998 colon = test system: HCC-2998 colon
UACC-62 melanoma = test system: UACC-62 melanoma
SK-MEL-28 melanoma = test system: SK-MEL-28 melanoma
DMS 114 small cell lung = test system: DMS 114 small cell lung
SF-268 CNS = test system: SF-268 CNS
HT29 colon = test system: HT29 colon
HCT-15 colon = test system: HCT-15 colon
SF-295 CNS = test system: SF-295 CNS
786-0 renal = test system: 786-0 renal
OVCAR-3 ovarian = test system: OVCAR-3 ovarian
M14 melanoma = test system: M14 melanoma
OVCAR-4 ovarian = test system: OVCAR-4 ovarian
KM12 colon = test system: KM12 colon
HOP-92 NSCLC = test system: HOP-92 NSCLC
COLO 205 colon = test system: COLO 205 colon
LXFL 529 NSCLC = test system: LXFL 529 NSCLC
HOP-62 NSCLC = test system: HOP-62 NSCLC
SK-MEL-2 melanoma = test system: SK-MEL-2 melanoma
NCI-H226 lung = test system: NCI-H226 lung
NCI-H522 lung = test system: NCI-H522 lung
TK-10 renal = test system: TK-10 renal
HOP-18 NSCLC = test system: HOP-18 NSCLC
SK-MEL-5 melanoma = test system: SK-MEL-5 melanoma
SN12C renal = test system: SN12C renal
U251 CNS = test system: U251 CNS
IGROV1 ovarian = test system: IGROV1 ovarian
OVCAR-5 ovarian = test system: OVCAR-5 ovarian
NCI-H23 lung = test system: NCI-H23 lung
KM20L2 colon = test system: KM20L2 colon
RXF 393 renal = test system: RXF 393 renal
RXF-631 renal = test system: RXF-631 renal
ACHN renal = test system: ACHN renal
OVCAR-8 ovarian = test system: OVCAR-8 ovarian
K-562 leukemia = test system: K-562 leukemia
UO-31 renal = test system: UO-31 renal
MOLT-4 leukemia = test system: MOLT-4 leukemia
EKVX NSCLC = test system: EKVX NSCLC
DMS 273 small cell lung = test system: DMS 273 small cell lung
M19-MEL melanoma = test system: M19-MEL melanoma
XF 498 CNS = test system: XF 498 CNS
RPMI-8226 leukemia = test system: RPMI-8226 leukemia

Measured: TGI

C=CCNC(=O)/C=C\C(=O)O
not listed: XF 498 CNS | RPMI-8226 leukemia
> 100 µM: all other assays above

COc1cc2c[n+]3ccc4cc(OC)c(OC)cc4c3cc2cc1O
not listed: CAKI-1 renal | SNB-78 CNS | DMS 114 small cell lung | OVCAR-3 ovarian | OVCAR-4 ovarian | COLO 205 colon | HOP-62 NSCLC | NCI-H226 lung | DMS 273 small cell lung
> 100 µM: all other assays above

O=c1c2ccccc2nc(/C=C(\O)c2ccccc2)n1-c1ccccc1Cl
not listed: XF 498 CNS | RPMI-8226 leukemia
> 100 µM: all other assays above
